# Earlier results as cited in patent US20230173296A1, “INTRACAVITARY PHOTODYNAMIC THERAPY” (Simphotek, Inc., priority 2020, published 2023).
# Read-outs that look alike come from different tables or passages of the source.
# How the values were obtained:
# [1] = system: Human prostate; settings: Davidson et. al., 2009
# [2] = system: cancer in rabbits; settings: I-PDT, Shafirstein et. al., 2018
# [3] = system: cancer in mice; settings: I-PDT, Shafirstein et. al., 2018
# [4] = system: tumors in mice; settings: Qiu et. al., 2016
compound,measurement,setting,value
Oc1cccc(-c2c3nc(c(-c4cccc(O)c4)c4ccc([nH]4)c(-c4cccc(O)c4)c4nc(c(-c5cccc(O)c5)c5ccc2[nH]5)CC4)C=C3)c1 [mTHPC],"ε, PS extinction coefficient",650 nm,mTHPC (650 nm): 0.048 cm^−1 μM^−1
benzoporphyrin derivative monoacid ring A [BPD],"ε, PS extinction coefficient",690 nm,BPD (690 nm): 0.0783 cm^−1 μM^−1
CC[C@H]1c2cc3[n-]c4c(c3C)C(=O)[C@H](C(=O)OC)c4c3nc(cc4[n-]c(cc(n2)[C@@H]1C)c(C(C)=O)c4C)[C@@H](C)[C@@H]3CCC(=O)O.[Pd+2] [TOOKAD],Threshold Light Dose,[1],">23 (Davidson et. al., 2009) J/cm^2"
Photofrin,Threshold Light Dose Rate ϕT,[2],"16.5 (Shafirstein et. al., 2018) mW/cm^2"
same,Threshold Light Dose Rate ϕT,[3],"8.4 (Shafirstein et. al., 2018) mW/cm^2"
same,Threshold [^1O2]dose,[4],">1.0 (Qiu et. al., 2016) mM"
same,"ε, PS extinction coefficient",630 nm,Photofrin (630 nm): 0.0035 cm^−1 μM^−1
